The values that follow come from PubChem BioAssay AID296 (DTP/NCI, 2004).

“And” between values parts separate entries of the source, which are not always exact repeats. Equal values may be shown once. Inconclusive results are not listed.

This experiment has as its system MX-1 breast xenograft, nude mice, tumor weight T/C. Description: NCI In Vivo Anticancer Drug Screen. Data for tumor model Human Mammary Carcinoma MX-1 Xenograft (intrarenal inoculation) in NU/NU Swiss (nude) mice. Conditions: endpoint: mean tumor weight change, higher = larger tumour. The essentials:
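Mice carrying the implanted tumor receive either test agent or vehicle. Tumor size or survival is then recorded for both groups. Results are stated as the treated-to-control quotient.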
On the technique in general: A xenograft is tissue or cells of one species grown in another, often human tumour cells in immunodeficient mice.

[1] abbreviates: dose: 75.0 mg/kg/injection, schedule: Q04DX003 (sc), vehicle: saline with Tween-80.
Where [2] appears, read: dose: 150.0 mg/kg/injection, schedule: Q04DX003 (sc), vehicle: saline with Tween-80.
[3] abbreviates: dose: 300.0 mg/kg/injection, schedule: Q04DX003 (sc), vehicle: Klucel (hydroxypropylcellulose) (HPC).
[4] abbreviates: dose: 600.0 mg/kg/injection, schedule: Q04DX003 (sc), vehicle: Klucel (hydroxypropylcellulose) (HPC).
The mark [5] stands for this setting: dose: 1200.0 mg/kg/injection, schedule: Q04DX003 (sc), vehicle: Klucel (hydroxypropylcellulose) (HPC).
[6] abbreviates: dose: 300.0 mg/kg/injection, schedule: Q04DX003 (sc), vehicle: saline with Tween-80.
The mark [7] stands for this setting: dose: 600.0 mg/kg/injection, schedule: Q04DX003 (sc), vehicle: saline with Tween-80.
The mark [8] stands for this setting: dose: 200.0 mg/kg/injection, schedule: Q04DX003 (sc), vehicle: saline with Tween-80.
[9] abbreviates: dose: 2400.0 mg/kg/injection, schedule: Q04DX003 (sc), vehicle: Klucel (hydroxypropylcellulose) (HPC).

In the case of `CO[C@H](C(=O)[C@@H](O)[C@@H](C)O)[C@@H]1Cc2cc3cc(OC4CC(OC5CC(O)C(O)C(C)O5)C(O)C(C)O4)c(C)c(O)c3c(O)c2C(=O)[C@H]1OC1CC(OC2CC(OC3CC(C)(O)C(O)C(C)O3)C(O)C(C)O2)C(O)C(C)O1` (some centres not stated), the T/C is, setting by setting: (dose: 0.25 mg/kg/injection, schedule: Q01DX010 (sc), vehicle: saline) 86 % of control; (dose: 0.25 mg/kg/injection, schedule: Q04DX003 (sc), vehicle: saline) 105 % of control; (dose: 0.5 mg/kg/injection, schedule: Q04DX003 (sc), vehicle: saline) 72 % of control; (dose: 0.75 mg/kg/injection, schedule: Q04DX003 (sc), vehicle: saline) 66 % of control; (dose: 1.0 mg/kg/injection, schedule: Q04DX003 (sc), vehicle: saline) 42 % of control; (dose: 1.5 mg/kg/injection, schedule: Q04DX003 (sc), vehicle: saline) 26 % of control. The T/C runs as follows: (dose: 2.0 mg/kg/injection, schedule: Q01DX010 (sc), vehicle: saline) -98 % of control; (dose: 2.0 mg/kg/injection, schedule: Q04DX003 (sc), vehicle: saline) -34 % of control.
With `Cn1c2nc(=O)n(-c3ccccc3)c(=O)c-2nc2c1CCCC2`, the T/C is, setting by setting: (dose: 37.5 mg/kg/injection, schedule: Q04DX003 (sc), vehicle: saline with Tween-80) 104 % of control; under setting [1], 111 % of control; under setting [2], 87 % of control.
Turning to `Cc1cc(N2C(=O)CCSC2=S)ccc1Cl`, the T/C reads like this: (dose: 150.0 mg/kg/injection, schedule: Q04DX003 (sc), vehicle: Klucel (hydroxypropylcellulose) (HPC)) 169 % of control; under setting [3], 90 % of control; under setting [4], 63 % of control; under setting [5], 96 % of control.
With `C[CH2][Pb]([CH2]C)([CH2]C)[O]C(=O)COc1ccccc1`, the T/C (dose: 4.5 mg/kg/injection, schedule: Q04DX003 (sc), vehicle: saline with Tween-80) was 66 % of control; the T/C (dose: 9.0 mg/kg/injection, schedule: Q04DX003 (sc), vehicle: saline with Tween-80) was 112 % of control; the T/C (dose: 18.0 mg/kg/injection, schedule: Q04DX003 (sc), vehicle: saline with Tween-80) is 79 % of control.
`CCOC(=O)c1ccc(NN=NCCF)cc1`: the T/C was 107 % of control (dose: 150.0 mg/kg/injection, schedule: Q04DX003 (ip), vehicle: distilled water + Tween-80 + alcohol); 112 % of control (dose: 300.0 mg/kg/injection, schedule: Q04DX003 (ip), vehicle: distilled water + Tween-80 + alcohol); 55 % of control (dose: 600.0 mg/kg/injection, schedule: Q04DX003 (ip), vehicle: distilled water + Tween-80 + alcohol).
Turning to `O=[N+]([O-])c1c(O)c(CNCCCO)cc(CNCCCO)c1O`, the T/C runs as follows: (dose: 37.5 mg/kg/injection, schedule: Q04DX003 (ip), vehicle: suspension in saline) 50 % of control; (dose: 75.0 mg/kg/injection, schedule: Q04DX003 (ip), vehicle: suspension in saline) 55 % of control.
With `COC(=O)C(Cl)(Cl)N=Nc1c(Cl)cc(Cl)c(C)c1Cl`, the T/C runs as follows: under setting [6], 78 % of control; under setting [7], 74 % of control.
On to `C/C=C/c1cc2c(c(=O)o1)C(=O)[C@@H](O)[C@H](C)O2`, for which the T/C (dose: 50.0 mg/kg/injection, schedule: Q04DX003 (sc), vehicle: saline with Tween-80) is 114 % of control; the T/C (dose: 100.0 mg/kg/injection, schedule: Q04DX003 (sc), vehicle: saline with Tween-80) is 93 % of control; the T/C under setting [8] was 101 % of control.
For the compound `O=C(O)CP(=O)(O)O`, the T/C by setting is: (dose: 300.0 mg/kg/injection, schedule: Q04DX003 (sc), vehicle: saline) 87 % of control; (dose: 600.0 mg/kg/injection, schedule: Q04DX003 (sc), vehicle: saline) 89 % of control; (dose: 1200.0 mg/kg/injection, schedule: Q04DX003 (sc), vehicle: saline) 83 % of control; (dose: 2400.0 mg/kg/injection, schedule: Q04DX003 (sc), vehicle: saline) 59 % of control.
Take `COc1ccc(C(=O)c2no[n+]([O-])c2C(=O)c2ccc(OC)cc2)cc1`: the T/C reads like this: under setting [6], 121 % of control; under setting [7], 91 % of control; (dose: 1200.0 mg/kg/injection, schedule: Q04DX003 (sc), vehicle: saline with Tween-80) 66 % of control; (dose: 2400.0 mg/kg/injection, schedule: Q04DX003 (sc), vehicle: saline with Tween-80) 88 % of control.
In the case of `Cc1c2cc[n+](C)cc2c(C)c2c1[nH]c1ccc(O)cc12`, the T/C (dose: 1.5 mg/kg/injection, schedule: Q04DX003 (sc), vehicle: water) is 167 % of control and the T/C (dose: 6.0 mg/kg/injection, schedule: Q04DX003 (sc), vehicle: water) is 91 % of control.
As to `CCCCCCCCCCCCCCCCS(=O)CC(O)COC(=O)c1ccc(C(=O)OCC(O)CS(=O)CCCCCCCCCCCCCCCC)cc1` (configuration not stated), the T/C (dose: 50.0 mg/kg/injection, schedule: Q01DX010 (sc), vehicle: saline + Tween-80 + alcohol) is 58 % of control; the T/C (dose: 100.0 mg/kg/injection, schedule: Q01DX010 (sc), vehicle: saline + Tween-80 + alcohol) was 115 % of control; the T/C (dose: 200.0 mg/kg/injection, schedule: Q01DX010 (sc), vehicle: saline + Tween-80 + alcohol) was 100 % of control; the T/C (dose: 400.0 mg/kg/injection, schedule: Q01DX010 (sc), vehicle: saline + Tween-80 + alcohol) was 82 % of control.
In the case of `NC(=O)c1ncn(C2OC(CO)C(O)C2O)c1O` (configuration not stated), the T/C is 73 % of control under setting [3], 95 % of control under setting [4] and 98 % of control under setting [5].
Turning to `COC1CC(CC2CCC(C)C(C(C)C(=O)O)O2)OC2(OC(C)(C3CCC(C)(C4OC(C5OC(O)(CO)C(C)CC5C)CC4C)O3)CC2C)C1C` (configuration not stated), the T/C runs as follows: (dose: 3.75 mg/kg/injection, schedule: Q04DX003 (sc), vehicle: Klucel (hydroxypropylcellulose) (HPC)) 120 % of control; (dose: 7.5 mg/kg/injection, schedule: Q04DX003 (sc), vehicle: Klucel (hydroxypropylcellulose) (HPC)) 65 % of control; (dose: 15.0 mg/kg/injection, schedule: Q04DX003 (sc), vehicle: Klucel (hydroxypropylcellulose) (HPC)) 86 % of control.
In the case of `CC(Cc1ccc(O)c(O)c1)C(C)Cc1ccc(O)c(O)c1` (configuration not stated), the T/C (dose: 150.0 mg/kg/injection, schedule: Q04DX003 (sc), vehicle: saline + alcohol) is 109 % of control; the T/C (dose: 300.0 mg/kg/injection, schedule: Q04DX003 (sc), vehicle: saline + alcohol) is 92 % of control; the T/C (dose: 1200.0 mg/kg/injection, schedule: Q04DX003 (sc), vehicle: saline + alcohol) is 92 % of control.
`C(CSC1=NCCN1)CSC1=NCCN1`: the T/C (dose: 50.0 mg/kg/injection, schedule: Q01DX010 (sc), vehicle: saline) was 103 % of control.
Turning to `O=c1[nH]c(=O)n(C2CC(O)C(CO)O2)cc1Br` (configuration not stated), the T/C was 91 % of control under setting [4]; 80 % of control under setting [5]; 59 % of control under setting [9]; 27 % of control (dose: 4800.0 mg/kg/injection, schedule: Q04DX003 (sc), vehicle: Klucel (hydroxypropylcellulose) (HPC)).
In the case of `O=C(O)CCCc1ccc(N(CCCl)CCCl)cc1`, the T/C is -6 % of control (dose: 4.0 mg/kg/injection, schedule: Q01DX010 (sc), vehicle: saline with Tween-80) and -65 % of control (dose: 16.0 mg/kg/injection, schedule: Q01DX010 (sc), vehicle: saline with Tween-80).
For `OCC1OC(n2cnc3c(NO)ncnc32)C(O)C1O` (configuration not stated), the T/C was 65 % of control under setting [3], 70 % of control under setting [4], 100 % of control under setting [5] and 82 % of control under setting [9].
`CCCCCCCCCCCCCCCC(=O)Nc1ccn(C2OC(CO)C(O)C2O)c(=O)n1` (configuration not stated): the T/C (dose: 1200.0 mg/kg/injection, schedule: Q04DX003 (sc), vehicle: water) was -65 % of control and -50 % of control.
For the compound `O=C(O)CC(NC(=O)CP(=O)(O)O)C(=O)O.[NH-]C1CCCCC1[NH-].[Pt+2]` (configuration not stated), the T/C by setting is: (dose: 12.5 mg/kg/injection, schedule: Q04DX003 (sc), vehicle: dextrose) 175 % of control; (dose: 25.0 mg/kg/injection, schedule: Q04DX003 (sc), vehicle: dextrose) 43 % of control and 62 % of control; (dose: 100.0 mg/kg/injection, schedule: Q04DX003 (sc), vehicle: dextrose) 12 % of control.
Take `CCN(CC)CCC(=O)c1ccccc1`: the T/C by setting is: under setting [1], 94 % of control; under setting [2], 100 % of control; under setting [6], 115 % of control.
Consider `CCCCOCN(COCCCC)C(C)Cc1ccccc1` (configuration not stated), for which the T/C runs as follows: under setting [8], 70 % of control; (dose: 400.0 mg/kg/injection, schedule: Q04DX003 (sc), vehicle: saline with Tween-80) 52 % of control; (dose: 800.0 mg/kg/injection, schedule: Q04DX003 (sc), vehicle: saline with Tween-80) 66 % of control.
